Assay results published in patent US20110319362A1, “STAT3 LIGANDS AND THERAPEUTIC USES THEREOF” (priority 2008, published 2011).
Where two headings read alike, the source gives them in different places. Where a SMILES comes first, the peptide text is derived from it. [ ]: non-standard residue; d: D form. The star is where a group is joined. 5FAM = O=C1OC2(c3ccc(O)cc3Oc3cc(O)ccc32)c2ccc(C(=O)*)cc21; pY = N[C@@H](Cc1ccc(OP(=O)(O)O)cc1)C(=O)O; βAla = NCCC(=O)O

Tests used:
STAT3 protein = target: T1, STAT3 protein (Homo sapiens, UniProt P40763); assay: In vitro competitive STAT3 binding assay (fluorescence polarization)
T1 construct: human STAT3 protein (residues 122-722) fused to His-tag; His-tag
T1 sequence (P40763 122-722): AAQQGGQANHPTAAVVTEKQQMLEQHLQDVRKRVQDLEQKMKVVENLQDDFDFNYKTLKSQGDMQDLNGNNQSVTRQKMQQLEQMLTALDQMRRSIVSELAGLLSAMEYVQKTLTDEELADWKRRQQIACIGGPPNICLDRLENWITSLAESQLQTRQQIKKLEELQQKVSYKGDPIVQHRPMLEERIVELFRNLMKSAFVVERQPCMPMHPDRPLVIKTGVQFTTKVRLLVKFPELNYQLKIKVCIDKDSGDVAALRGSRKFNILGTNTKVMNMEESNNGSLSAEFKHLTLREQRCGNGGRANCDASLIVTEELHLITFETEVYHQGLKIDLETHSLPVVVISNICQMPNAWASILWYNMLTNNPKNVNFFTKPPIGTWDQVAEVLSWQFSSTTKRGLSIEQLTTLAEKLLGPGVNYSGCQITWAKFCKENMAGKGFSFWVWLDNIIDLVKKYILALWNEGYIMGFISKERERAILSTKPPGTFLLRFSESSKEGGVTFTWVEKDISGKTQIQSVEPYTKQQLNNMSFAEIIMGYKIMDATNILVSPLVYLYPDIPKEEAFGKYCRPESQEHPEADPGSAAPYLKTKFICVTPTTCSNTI
Description: To quantitatively determine the binding affinities of STAT3 inhibitors to STAT3 protein, a sensitive and quantitative in vitro binding assay was developed based upon fluorescence polarization (FP) method. For this FP assay, 5-carboxyfluorescein (5-Fam) was coupled to a phosphopeptide (phospho-Tyr-Leu-Pro-Gln-Thr-Val-amide) with two beta-alanine and one glycine residues as the spacer between 5-Fam and the phosphopeptide to obtain 5-Fam-beta-Ala-beta-Ala-Gly-phospho-Tyr-Leu-Pro-Gln-Thr-Val-amide as the fluorescently tagged tracer, which was named as STT2 peptide. […] The recombinant human STAT3 protein (residues 122-722) fused to His-tag was stable and soluble.
Competitive binding experiments were carried out using 150 nM of STAT3 protein and 5 nM of STT2 peptide with different concentrations of a tested STAT3 inhibitor. For each experiment, two controls were included. One control contained STAT3 protein and STT2 peptide, and the second control contained STT2 peptide only. The polarization values were measured after 2-3 hours of incubation using an ULTRA READER (Tecan U.S. Inc., Research Triangle Park, N.C.). IC50 values, the inhibitor concentration at which 50% of the fluorescently tagged STT2 peptide is displaced by STAT3 inhibitors, was determined from a plot using nonlinear least-squares analysis using GRAPHPAD PRISM software (GraphPad Software, Inc., San Diego, Calif.). […]

[1] = test system: MDA-MB-231 cancer cell line; assay: Cell growth assay (WST-8); assay type: cell-based; details: Homo sapiens, MDA-MB-231, 96 h, WST-8, 4 days
Procedure: (§1) The effect of STAT3 compounds on cell growth was evaluated by a WST-8 [2-(2-methoxy-4-nitrophenyl)-3-(4-nitrophenyl)-5-(2,4-disulfophenyl)-2H-tetrazolium, monosodium salt assay (Dojindo Molecular Technologies, Inc). Cells (3000-4000 cells in each well) were cultured in 96-well tissue culture plates in medium (200 μL) containing various concentrations of STAT3 compounds for 4 days. At the end of incubation, WST-8 dye (20 μL) was added to each well and incubated for an additional 1-3 h, and then the absorbance was measured in a microplate reader (Molecular Devices) at 450 nm. Cell growth inhibition was evaluated as the ratio of the absorbance of the sample to that of the control.

[2] = test system: MDA-MB-468 cancer cell line; assay: Cell growth assay (WST-8); assay type: cell-based; details: Homo sapiens, MDA-MB-468, 96 h, WST-8, 4 days
Procedure: as §1

[3] = read-out: Inhibition of cell growth IC50, MDA-MB-231 cancer cell line
[4] = read-out: Inhibition of cell growth IC50, MDA-MB-468 cancer cell line
[5] = FP competitive binding, fluorescently tagged STT2 peptide tracer, read-out: Binding affinities to STAT3 IC50
[6] = Table 2 prints no column heads, columns and unit as in Table 1, read-out: Inhibition of cell growth IC50, MDA-MB-468 cancer cell line (pro-drugs, Table 2)
[7] = Table 2 prints no column heads, columns and unit as in Table 1, read-out: Inhibition of cell growth IC50, MDA-MB-231 cancer cell line (pro-drugs, Table 2)

Row | Structure (SMILES) | IC50 [1, 3] [µM] | IC50 [2, 4] [µM] | IC50 [2, 6] [µM] | also measured
1 | NC(=O)CC[C@H](NC(=O)[C@@H]1CCC2CCNC[C@H](NC(=O)[C@@H](N)Cc3ccc(OP(=O)(O)O)cc3)C(=O)N21)C(=O)NCc1ccccc1 (some centres unmarked) | > 100 | > 100 | – | IC50 (STAT3 protein): < 100 µM
2 | NCCC[C@H](NC(=O)[C@@H]1CC[C@@H]2CCCC[C@H](NC(=O)[C@H](Cc3ccc(OP(=O)(O)O)cc3)NC(=O)OCc3ccccc3)C(=O)N21)C(=O)NCc1ccccc1 [Example 20] | > 50 | > 100 | – | IC50 (STAT3 protein): < 10 µM
3 | Cn1c(C(=O)N[C@H]2CCCCC3CC[C@@H](C(=O)NC(CCC(N)=O)C(=O)NCc4ccccc4)N3C2=O)cc2cc(C(F)(F)P(=O)(O)O)ccc21 (some centres unmarked) [Example 61] | – | > 100 | – | IC50 (STAT3 protein; [5]): < 5 µM
4 | NC(=O)CC[C@H](NC(=O)[C@@H]1CC[C@@H]2CCCC[C@H](NC(=O)[C@@H](N)Cc3ccc(CP(=O)(O)O)cc3)C(=O)N21)C(=O)NCc1ccccc1 [Example 29] | > 100 | > 100 | – | IC50 (STAT3 protein): < 30 µM
5 | CN(C)[C@@H](Cc1ccc(OCP(=O)(O)O)cc1)C(=O)NC1CCCC[C@H]2CC[C@@H](C(=O)N[C@@H](Cc3c[nH]cn3)C(=O)NCCc3ccccc3)N2C1=O (stereo in doubt) [Example 34] | > 100 | > 100 | – | IC50 (STAT3 protein; [5]): < 30 µM
6 | NC(=O)CC[C@H](NC(=O)[C@@H]1CCC2CCCC[C@H](NC(=O)c3cc4cc(CP(=O)(O)O)ccc4[nH]3)C(=O)N21)C(=O)NCc1ccccc1 (some centres unmarked) [Example 58] | > 100 | > 100 | – | IC50 (STAT3 protein): < 10 µM
7 | CC(C)OC(=O)OCOP(=O)(OCOC(=O)OC(C)C)C(F)(F)c1ccc2[nH]c(C(=O)N[C@H]3CCCCC4CC[C@@H](C(=O)NC(CCC(N)=O)C(=O)NCc5ccccc5)N4C3=O)cc2c1 (some centres unmarked) [Example 68] | – | – | > 100 | –
8 | CC(C)(C)C(=O)OCOP(=O)(OCOC(=O)C(C)(C)C)C(F)(F)c1ccc2[nH]c(C(=O)N[C@H]3CCCCC4CC[C@@H](C(=O)NCCc5cn[nH]c5)N4C3=O)cc2c1 (some centres unmarked) [Example 63] | – | – | < 50 | –
9 | CC(=O)N[C@@H](Cc1ccc(OCP(=O)(O)O)cc1)C(=O)N[C@H]1CCCCC2CC[C@@H](C(=O)N[C@@H](CCC(N)=O)C(=O)NCc3ccccc3)N2C1=O (stereo in doubt) [Example 31] | > 100 | – | – | IC50 (STAT3 protein): < 10 µM
10 | CC(C)(C)C(=O)OCOP(=O)(Cc1ccc(C[C@H](NC(=O)OCC2c3ccccc3-c3ccccc32)C(=O)N[C@H]2CCCCC3CC[C@@H](C(=O)N[C@@H](CCC(N)=O)C(=O)NCc4ccccc4)N3C2=O)cc1)OCOC(=O)C(C)(C)C (some centres unmarked) | – | – | < 10 | IC50 [1, 7]: < 10 µM
11 | CCCCCCCCCCCCCCCCNC(=O)C(CCC(N)=O)NC(=O)[C@@H]1CCC2CCCC[C@H](NC(=O)c3cc4cc(C(F)(F)P(=O)(OCOC(=O)C(C)(C)C)OCOC(=O)C(C)(C)C)ccc4[nH]3)C(=O)N21 (some centres unmarked) [Example 67] | – | – | > 100 | –
12 | CC(C)C[C@H](NC(=O)[C@H](Cc1ccc(OP(=O)(O)O)cc1)NC(=O)CNC(=O)CCNC(=O)CCNC(=O)c1ccc2c(c1)C(=O)OC21c2ccc(O)cc2Oc2cc(O)ccc21)C(=O)N1CCC[C@H]1C(=O)N[C@@H](CCC(N)=O)C(=O)N[C@H](C(=O)N[C@H](C(N)=O)C(C)C)[C@@H](C)O [STT2 peptide, 5-Fam-beta-Ala-beta-Ala-Gly-phospho-Tyr-Leu-Pro-Gln-Thr-Val-amide, reference compound] ({5FAM-βAla-βAla}-G[pY]LPQTV-NH2) | – | – | – | Kd (STAT3 protein): 0.047 µM
13 | CCCCCCCCCCCCCCCCOP(=O)(O)C(F)(F)c1ccc2cc(C(=O)N[C@H]3CCCC[C@H]4CC[C@@H](C(=O)NC(CCC(N)=O)C(=O)NCc5ccccc5)N4C3=O)[nH]c2c1 (some centres unmarked) | – | – | > 50 | –
14 | CC(C)(C)C(=O)OCOP(=O)(COc1ccc(C[C@H](NC(=O)OCc2ccccc2)C(=O)N[C@H]2CCCCC3CC[C@@H](C(=O)N[C@@H](CCC(N)=O)C(=O)NCc4ccccc4)N3C2=O)cc1)OCOC(=O)C(C)(C)C (some centres unmarked) | – | – | > 50 | IC50 [1, 7]: > 50 µM
15 | CCCCCCCCCCCCCCCCOP(=O)(OCCCCCCCCCCCCCCCC)C(F)(F)c1ccc2cc(C(=O)N[C@H]3CCCC[C@H]4CC[C@@H](C(=O)NCCc5cn[nH]c5)N4C3=O)[nH]c2c1 | – | – | > 100 | –
16 | CCCCCCCCCCCCCCCCOP(=O)(OCCCCCCCCCCCCCCCC)C(F)(F)c1ccc2cc(C(=O)N[C@H]3CCCC[C@H]4CC[C@@H](C(=O)N(CC)CC)N4C3=O)[nH]c2c1 | – | – | > 100 | –
17 | CCCCCCCCN(CCCCCCCC)[C@@H](Cc1ccc(OP(=O)(O)O)cc1)C(=O)N[C@H]1CCCCC2CC[C@@H](C(=O)N[C@@H](CCC(N)=O)C(=O)NCc3ccccc3)N2C1=O (some centres unmarked) | > 100 | – | – | IC50 (STAT3 protein; [5]): < 100 µM

Row | Structure (SMILES) | IC50 [1, 3] [µM] | IC50 [2, 4] [µM] | IC50 [2, 6] [µM] | also measured
18 | CCCCCCCCCCCCCCCCNC(=O)C(CCC(N)=O)NC(=O)[C@@H]1CCC2CCCC[C@H](NC(=O)c3cc4cc(C(F)(F)P(=O)(O)O)ccc4[nH]3)C(=O)N21 (some centres unmarked) [Example 66] | – | > 100 | – | IC50 (STAT3 protein): < 1 µM
19 | CCCCCCCCCCCCCCCCN1CCN(CCC(=O)N[C@@H](Cc2ccc(OP(=O)(O)O)cc2)C(=O)N[C@H]2CCCCC3CC[C@@H](C(=O)NCCc4nnn[nH]4)N3C2=O)CC1 (some centres unmarked) | < 50 | < 50 | – | –
20 | NC(=O)CCC(NC(=O)[C@@H]1CCC2CCCC[C@H](NC(=O)c3cc4cc(C(F)(F)P(=O)(O)O)ccc4o3)C(=O)N21)C(=O)NCc1ccccc1 (some centres unmarked) [Example 65] | – | > 100 | – | IC50 (STAT3 protein; [5]): > 10 µM
21 | CN(C)[C@@H](Cc1ccc(CP(=O)(O)O)cc1)C(=O)N[C@H]1CCCC[C@H]2CC[C@@H](C(=O)N[C@@H](Cc3c[nH]cn3)C(=O)NCc3ccccc3)N2C1=O [Example 28] | – | > 100 | – | IC50 (STAT3 protein; [5]): > 10 µM
22 | CC(C)(C)C(=O)OCOP(=O)(OCOC(=O)C(C)(C)C)C(F)(F)c1ccc(/C=C/C(=O)N[C@H]2CCCCC3CC[C@@H](C(=O)N[C@@H](CCC(N)=O)C(=O)NCc4ccccc4)N3C2=O)cc1 (some centres unmarked) | – | – | > 100 | –
23 | CC(C)(C)C(=O)OCOP(=O)(OCOC(=O)C(C)(C)C)C(F)(F)c1ccc2[nH]c(C(=O)N[C@H]3CCCCC4CC[C@@H](C(=O)NC(CCC(N)=O)C(=O)NCc5ccccc5)N4C3=O)cc2c1 (some centres unmarked) [Example 64] | – | – | > 100 | –
24 | CC(C)OC(=O)OCOP(=O)(OCOC(=O)OC(C)C)C(F)(F)c1ccc2[nH]c(C(=O)N[C@H]3CCCCC4CC[C@@H](C(=O)NCCc5cn[nH]c5)N4C3=O)cc2c1 (some centres unmarked) [Example 69] | – | – | > 100 | –
25 | NC(=O)CC[C@H](NC(=O)[C@@H]1CCC2CCCC[C@H](NC(=O)[C@H](Cc3ccc(OP(=O)(O)O)cc3)NC(=O)CCOCCOCCOCCOCCNC(=O)CCCCC3SCC4NC(=O)NC43)C(=O)N21)C(=O)NCc1ccccc1 (some centres unmarked) | – | – | – | IC50 (STAT3 protein): < 1 µM
26 | CCCCCCCCCCCCCCCCOP(=O)(OCCCCCCCCCCCCCCCC)C(F)(F)c1ccc2cc(C(=O)N[C@H]3CCCC[C@H]4CC[C@@H](C(=O)NC(CCC(N)=O)C(=O)NCc5ccccc5)N4C3=O)[nH]c2c1 (some centres unmarked) | – | – | < 30 | –
27 | CCOP(=O)(OCC)C(F)(F)c1ccc2c(c1)cc(C(=O)N[C@H]1CCCCC3CC[C@@H](C(=O)NC(CCC(N)=O)C(=O)NCc4ccccc4)N3C1=O)n2C (some centres unmarked) [Example 62] | – | – | > 100 | –
28 | CC(=O)N[C@@H](Cc1ccc(CP(=O)(O)O)cc1)C(=O)N[C@H]1CCCC[C@H]2CC[C@@H](C(=O)N[C@@H](Cc3c[nH]cn3)C(=O)NCc3ccccc3)N2C1=O [Example 27] | > 100 | – | – | IC50 (STAT3 protein): > 10 µM
29 | CCOP(=O)(O)CCCCCC(=O)N[C@H]1CCCC[C@H]2CC[C@@H](C(=O)N[C@@H](CCC(N)=O)C(=O)NCc3ccccc3)N2C1=O [Example 23] | > 100 | – | – | IC50 (STAT3 protein; [5]): > 100 µM
30 | CC(C)(C)C(=O)OCOP(=O)(O)COc1ccc(C[C@H](NC(=O)OCc2ccccc2)C(=O)N[C@H]2CCCCC3CC[C@@H](C(=O)N[C@@H](CCC(N)=O)C(=O)NCc4ccccc4)N3C2=O)cc1 (some centres unmarked) | – | – | > 50 | IC50 [1, 7]: > 50 µM
31 | CCCCCCCCCCCCCCCCOP(=O)(O)C(F)(F)c1ccc2cc(C(=O)N[C@H]3CCCC[C@H]4CC[C@@H](C(=O)NCCc5cn[nH]c5)N4C3=O)[nH]c2c1 | – | – | > 100 | –
32 | NC(=O)CC[C@H](NC(=O)[C@@H]1CCC2CCCC[C@H](NC(=O)c3cc4cc(C(F)(F)P(=O)(O)O)ccc4[nH]3)C(=O)N21)C(=O)NCc1ccccc1 (some centres unmarked) [Example 59] | – | > 100 | – | IC50 (STAT3 protein): < 1 µM
33 | CC(C)(C)C(=O)OCOP(=O)(OCOC(=O)C(C)(C)C)C(F)(F)c1ccc(/C=C/C(=O)N[C@H]2CCCCC3CC[C@@H](C(=O)NCCc4cn[nH]c4)N3C2=O)cc1 (some centres unmarked) | – | – | < 30 | –
